Data from patent publication US11827628B2, “Compositions and methods for inhibition of the JAK pathway” (Rigel Pharmaceuticals, Inc., priority 2005, dated 2023).
Where two headings read alike, the source gives them in different places.

Experiments:
[1] = tested on: IL-4 stimulated expression of CD23 in human Ramos B cells (JAK-1 and JAK-3); assay: Assay for Ramos B-Cell Line Stimulated with IL-4 (CD23 upregulation, FACS); format: cell-based; conditions: Ramos B-cell line stimulated with IL-4; CD23 expression by FACS; read-out: IC50, Example 41
Summary of the method: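 Steps: Ramos B cells are suspended in RPMI with 5% serum, exposed to compound for 1 h at 37 °C, stimulated with IL-4 (final 50 units/mL) for 20-24 h, stained for CD23 and analysed by flow cytometry. IC50 is calculated.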

Primary human T-cells = assay: Primary Human T-Cell Proliferation Assay Stimulated with IL-2 (CellTiter-Glo); format: cell-based; conditions: read-out: IC50, Example 42
Summary of the method: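 IC50 derived from CellTiter-Glo ATP signal after 72 hours of IL-2-driven proliferation at 37° C. Cells: primary human T-cells from blood, stimulated beforehand 3-4 days on anti-CD3/anti-CD28 with IL-2, then rested from IL-2 before compound exposure in duplicate; IL-2-free wells served as unstimulated control.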

[2] = primary human T-cell proliferation stimulated with IL-2

SMILES	IC50 [1]	IC50 (Primary human T-cells; [2])	IC50 (Primary human T-cells; primary human T-cells stimulated with IL-2, proliferation)
Cc1cc(Nc2nc(Nc3ccc(C)c(S(N)(=O)=O)c3)ncc2F)ccc1OCC(N)=O [Compound I-95, N4-(4-Aminocarbonylmethoxy-3-methyl)phenyl-N2-(3-aminosulfonyl-4-methyl)phenyl-5-fluoro-2,4-pyrimidinediamine]	118 nM	325 nM	–
COc1cc(Nc2ncc(F)c(Nc3ccc(OC(C)C#N)c(C)c3)n2)ccc1S(N)(=O)=O (racemic) [Compound I-64, Racemic N2-(4-Aminosulfonyl-3-methoxy)phenyl-N4-[4-(1-cyano)ethoxy-3-methyl]phenyl-5-fluoro-2,4-pyrimidinediamine]	113 nM	1880 nM	–
Cc1cc(Nc2nc(Nc3cccc(S(N)(=O)=O)c3)ncc2F)ccc1OCC(N)=O [Compound I-92, N4-(4-Aminocarbonylmethoxy-3-methyl)phenyl-N2-(3-aminosulfonyl)phenyl-5-fluoro-2,4-pyrimidinediamine]	166 nM	543 nM	–
Cc1ccc(Nc2ncc(F)c(Nc3ccc(OC(C)(C)C#N)cc3)n2)cc1S(N)(=O)=O [Compound I-73, N2-(3-Aminosulfonyl-4-methyl)phenyl-N4-[4-(1-cyano-1-methyl)ethoxy]phenyl-5-fluoro-2,4-pyrimidinediamine]	120 nM	728 nM	–
Cc1ccc(Nc2ncc(F)c(Nc3ccc(NC(=O)CC#N)c(Cl)c3)n2)cc1S(N)(=O)=O [Compound I-83, N2-(3-Aminosulfonyl-4-methylphenyl)-N4-[3-chloro-4-(N-cyanoacetyl)aminophneyl]-5-fluoro-2,4-pyrimidinediamine]	158 nM	1760 nM	–
Cc1cc(Nc2nc(Nc3cccc(S(N)(=O)=O)c3)ncc2F)cc(C)c1OCC(N)=O [Compound I-93, N4-(4-Aminocarbonylmethoxy-3,5-dimethyl)phenyl-N2-(3-aminosulfonyl)phenyl-5-fluoro-2,4-pyrimidinediamine]	265 nM	1170 nM	–
Cc1ccc(Nc2ncc(F)c(Nc3ccc(Cn4ccnc4)cc3)n2)cc1S(N)(=O)=O [III-82, N2-(3-Aminosulfonyl-4-methylphenyl)-5-fluoro-N4-[4-(1-imidazolylmethyl)phenyl]-2,4-pyrimidinediamine]	127 nM	160 nM	–
Cc1ccc(Nc2ncc(F)c(Nc3cccc(OCC(N)=O)c3)n2)cc1S(N)(=O)=O [Compound I-90, N4-(3-Aminocarbonylmethoxy)phenyl-N2-(3-aminosulfonyl-4-methyl)phenyl-5-fluoro-2,4-pyrimidinediamine]	401 nM	2190 nM	–
N#CCOc1cccc(Nc2nc(Nc3cccc(S(N)(=O)=O)c3)ncc2F)c1 [Compound I-4, N2-(3-Aminosulfonyl)phenyl-N4-(3-cyanomethoxy)phenyl-5-fluoro-2,4-pyrimidinediamine]	49.1 nM	178 nM	–
CC(C#N)Oc1ccc(Nc2nc(Nc3ccc(S(N)(=O)=O)cc3)ncc2F)cc1 (racemic) [Compound I-66, Racemic N2-(4-Aminosulfonyl)phenyl-N4-[4-(1-cyano)ethoxy]phenyl-5-fluoro-2,4-pyrimidinediamine]	103 nM	287 nM	–
CC(C)(C#N)Oc1ccc(Nc2nc(Nc3cccc(S(N)(=O)=O)c3)ncc2F)cc1 [Compound I-76, N2-(3-Aminosulfonyl)phenyl-N4-[4-(1-cyano-1-methyl)ethoxy]phenyl-5-fluoro-2,4-pyrimidinediamine]	101 nM	196 nM	–
Cc1cc(Nc2nc(Nc3ccc(F)c(S(N)(=O)=O)c3)ncc2F)ccc1OCC#N [Compound I-34, N2-(3-Aminosulfonyl-4-fluoro)phenyl-N4-(4-cyanomethoxy-3-methyl)phenyl-5-fluoro-2,4-pyrimidinediamine]	62.3 nM	806 nM	–
CC(C)(C#N)Oc1ccc(Nc2nc(Nc3ccc(S(N)(=O)=O)cc3)ncc2F)cc1 [Compound I-75, N2-(4-Aminosulfonyl)phenyl-N4-[4-(1-cyano-1-methyl)ethoxy]phenyl-5-fluoro-2,4-pyrimidinediamine]	199 nM	3300 nM	–
NS(=O)(=O)c1cccc(Nc2ncc(F)c(Nc3ccc(Cn4ccnc4)cc3)n2)c1 [III-81, N2-(3-Aminosulfonylphenyl)-5-fluoro-N4-[4-(1-imidazolylmethyl)phenyl]-2,4-pyrimidinediamine]	180 nM	204 nM	–
CNS(=O)(=O)c1cc(Nc2ncc(F)c(Nc3ccc(Cc4ccncc4)cc3)n2)ccc1C [III-75, 5-Fluoro-N2-[3-(N-methylaminosulfony)-4-methylphenyl]-5-fluoro-N4-[4-(4-pyridinylmethyl)phenyl]-2,4-pyrimidinediamine]	170 nM	220 nM	–
Cc1ccc(Nc2ncc(F)c(Nc3ccc(OCC#N)cc3)n2)cc1S(=O)(=O)NC(=O)C(C)C [Compound I-37, N4-(4-Cyanomethyleneoxy)phenyl-5-fluoro-N2-(3-isobutyrylaminosulfonyl-4-methyl)phenyl-2,4-pyrimidinediamine]	499 nM	3680 nM	–
Cc1ccc(Nc2ncc(F)c(Nc3ccc4c(c3)CCN4S(C)(=O)=O)n2)cc1S(N)(=O)=O [VII-61, N2-(3-Aminosulfonyl-4-methylphenyl)-5-fluoro-N4-[4-(1-methylsulfonyl)indolin-5-yl]-2,4-pyrimidinediamine]	–	–	140 nM
COc1cc(Nc2ncc(F)c(Nc3ccc(OC(C)C#N)cc3)n2)ccc1S(N)(=O)=O (racemic) [Compound I-70, Racemic N2-(4-Aminosulfonyl-3-methoxy)phenyl-N4-[4-(1-cyano)ethoxy]phenyl-5-fluoro-2,4-pyrimidinediamine]	61.4 nM	573 nM	–
CC(C#N)Oc1ccc(Nc2nc(Nc3ccc(F)c(S(N)(=O)=O)c3)ncc2F)cc1 (racemic) [Compound I-68, Racemic N2-(3-Aminosulfonyl-4-fluoro)phenyl-N4-[4-(1-cyano)ethoxy]phenyl-5-fluoro-2,4-pyrimidinediamine]	187 nM	482 nM	–
CC(C#N)Oc1ccc(Nc2nc(Nc3cccc(S(N)(=O)=O)c3)ncc2F)cc1 (racemic) [Compound I-65, Racemic N2-(3-Aminosulfonyl)phenyl-N4-[4-(1-cyano)ethoxy]phenyl-5-fluoro-2,4-pyrimidinediamine]	96.5 nM	47.3 nM	–
CC(C)(C#N)Oc1ccc(Nc2nc(Nc3ccc(F)c(S(N)(=O)=O)c3)ncc2F)cc1 [Compound I-74, N2-(3-Aminosulfonyl-4-fluoro)phenyl-N4-[4-(1-cyano-1-methyl)ethoxy]phenyl-5-fluoro-2,4-pyrimidinediamine]	245 nM	1500 nM	–
Cc1cc(Nc2nc(Nc3ccc(F)c(S(N)(=O)=O)c3)ncc2F)ccc1OC(C)C#N (racemic) [Compound I-69, Racemic N2-(3-Aminosulfonyl-4-fluoro)phenyl-N4-[4-(1-cyano)ethoxy-3-methyl]phenyl-5-fluoro-2,4-pyrimidinediamine]	118 nM	1030 nM	–
Cc1cc(Nc2nc(Nc3ccc(S(N)(=O)=O)cc3)ncc2F)ccc1OC(C)C#N (racemic) [Compound I-60, Racemic N2-(4-Aminosulfonyl)phenyl-N4-[4-(1-cyano)ethoxy-3-methyl]phenyl-5-fluoro-2,4-pyrimidinediamine]	103 nM	2170 nM	–
Cc1cc(Nc2nc(Nc3cccc(S(N)(=O)=O)c3)ncc2F)cc(C)c1OC(C)C#N (racemic) [Compound I-71, Racemic N2-(3-Aminosulfonyl)phenyl-N4-[4-(1-cyano)ethoxy-3,5-dimethyl]phenyl-5-fluoro-2,4-pyrimidinediamine]	61.8 nM	136 nM	–
Cc1cc(Nc2nc(Nc3ccc(C)c(S(N)(=O)=O)c3)ncc2F)ccc1OC(C)C#N (racemic) [Compound I-62, Racemic N2-(3-Aminosulfonyl-4-methyl)phenyl-N4-[4-(1-cyano)ethoxy-3-methyl]phenyl-5-fluoro-2,4-pyrimidinediamine]	101 nM	376 nM	–
CNS(=O)(=O)c1cc(Nc2ncc(F)c(Nc3ccc(Cn4ccnc4)cc3)n2)ccc1C [III-83, 5-Fluoro-N2-[3-(N-methylaminosulfony)-4-methylphenyl]-5-fluoro-N4-[4-(1-imidazolylmethyl)phenyl]-2,4-pyrimidinediamine]	98.7 nM	96.2 nM	–
Cc1cnc(Nc2ccc(S(N)(=O)=O)cc2)nc1Nc1ccc(OCC#N)cc1 [Compound I-57, N2-(4-Aminosulfonylphenyl)-N4-(4-cyanomethoxyphenyl-5)-methyl-2,4-pyrimidinediamine]	21.6 nM	53.1 nM	–
Cc1cc(Nc2nc(Nc3ccc(F)c(S(N)(=O)=O)c3)ncc2F)cc(C)c1OCC#N [Compound I-35, N2-(3-Aminosulfonyl-4-fluoro)phenyl-N4-(4-cyanomethoxy-3,5-dimethyl)phenyl-5-fluoro-2,4-pyrimidinediamine]	47 nM	1130 nM	–
Cc1ccc(Nc2ncc(F)c(Nc3ccc(OCC(N)=O)cc3)n2)cc1S(N)(=O)=O [Compound I-94, N4-(4-Aminocarbonylmethoxy)phenyl-N2-(3-aminosulfonyl-4-methyl)phenyl-5-fluoro-2,4-pyrimidinediamine]	345 nM	563 nM	–
Cc1cc(Nc2nc(Nc3cccc(S(N)(=O)=O)c3)ncc2F)ccc1OC(C)C#N (racemic) [Compound I-61, Racemic N2-(3-Aminosulfonyl)phenyl-N4-[4-(1-cyano)ethoxy-3-methyl]phenyl-5-fluoro-2,4-pyrimidinediamine]	45.9 nM	123 nM	–
